# Assay results: patent publication US9388141B2, “Acylaminocycloalkyl compounds suitable for treating disorders that respond to modulation of dopamine D3 receptor” (AbbVie Deutschland GmbH & Co. KG, priority 2013, dated 2016)
# What was measured:
# [1] = target: T1, human dopamine D3 receptors (Homo sapiens, UniProt P35462); assay: Dopamine D3 receptor binding, [125I]-iodosulpride displacement; conditions: membranes of HEK-293 cells with human D3 receptors, 0.1 nM [125I]-iodosulpride
# T1 construct: expressed in transfected cells; host or cells: HEK-293
# Procedure: (§1) The substance to be tested was either dissolved in methanol/Chremophor® (BASF SE) or in dimethyl sulfoxide and then diluted with water to the desired concentration.
# (§2) Each assay mixture was run in triplicate. • The incubation buffer contained 50 mM tris, 120 mM NaCl, 5 mM KCl, 2 mM CaCl2, 2 mM MgCl2 and 0.1% bovine serum albumin, 10 μM quinolone and 0.1% ascorbic acid (prepared fresh daily). […] Each assay mixture was run in triplicate. • The incubation buffer contained 50 mM tris, 120 mM NaCl, 5 mM KCl, 2 mM CaCl2, 2 mM MgCl2 and 0.1% bovine serum albumin. The buffer was adjusted to pH 7.4 with HCl. c) Measurement and Analysis: • After having been incubated at 25° C. for 60 minutes, the assay mixtures were filtered through a Whatman GF/B glass fiber filter under vacuum using a cell collecting device. The filters were transferred to scintillation viols using a filter transfer system. After 4 ml of Ultima Gold® (Packard) have been added, the samples were shaken for one hour and the radioactivity was then counted in a Beta-Counter (Packard, Tricarb 2000 or 2200CA).
# [2] = target: T2, human dopamine D2L receptors (long isoform) (Homo sapiens, UniProt P14416); assay: Dopamine D2L receptor binding, [125I]-iodospiperone displacement; conditions: selectivity ratio Ki (D2L)/Ki (D3)
# T2 construct: expressed in transfected cells; host or cells: HEK-293
# Procedure: as §1, §2
# [3] = Determination of the microsomal half-life / microsomal clearance; type: in vitro ADME; conditions: human liver microsomes, 0.5 μM test substance, 0.25 mg microsomal protein/ml, pH 7.4, 37° C.
# Procedure: The metabolic stability of the compounds of the invention was determined in the following assay.
# The test substances were incubated in a concentration of 0.5 μM as follows:
# 0.5 μM test substance are preincubated together with liver microsomes from different species (from rat, human or other species) (0.25 mg of microsomal protein/ml) in 0.05 M potassium phosphate buffer of pH 7.4 in microtiter plates at 37° C. for 5 min. The reaction is started by adding NADPH (1 mg/mL). After 0, 5, 10, 15, 20 and 30 min, 50 μl aliquots are removed, and the reaction is immediately stopped and cooled with the same volume of acetonitrile. The samples are frozen until analyzed. The remaining concentration of undegraded test substance is determined by MSMS. The half-life (T1/2) is determined from the gradient of the signal of test substance/unit time plot, it being possible to calculate the half-life of the test substance, assuming first order kinetics, from the decrease in the concentration of the compound with time. The microsomal clearance (mCl) is calculated from mCl=1n2/T1/2/(content of microsomal protein in mg/ml)×1000 [[…]] (modified from references: Di, The Society for Biomoleculur Screening, 2003, 453-462; Obach, DMD, 1999 vol 27. N 11, 1350-1359).
# T1 sequence (P35462 whole entry): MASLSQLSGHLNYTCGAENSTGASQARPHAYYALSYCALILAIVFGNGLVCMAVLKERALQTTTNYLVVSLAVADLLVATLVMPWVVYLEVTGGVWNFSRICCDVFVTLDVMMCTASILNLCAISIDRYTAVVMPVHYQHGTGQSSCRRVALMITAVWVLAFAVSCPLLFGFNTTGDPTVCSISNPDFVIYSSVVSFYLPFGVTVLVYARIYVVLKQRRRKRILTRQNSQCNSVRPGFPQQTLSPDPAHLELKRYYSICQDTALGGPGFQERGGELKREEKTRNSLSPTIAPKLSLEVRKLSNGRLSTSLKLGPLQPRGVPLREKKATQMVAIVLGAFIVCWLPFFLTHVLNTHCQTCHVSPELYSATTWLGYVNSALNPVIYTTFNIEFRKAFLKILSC
# T2 sequence (P14416 whole entry, canonical isoform): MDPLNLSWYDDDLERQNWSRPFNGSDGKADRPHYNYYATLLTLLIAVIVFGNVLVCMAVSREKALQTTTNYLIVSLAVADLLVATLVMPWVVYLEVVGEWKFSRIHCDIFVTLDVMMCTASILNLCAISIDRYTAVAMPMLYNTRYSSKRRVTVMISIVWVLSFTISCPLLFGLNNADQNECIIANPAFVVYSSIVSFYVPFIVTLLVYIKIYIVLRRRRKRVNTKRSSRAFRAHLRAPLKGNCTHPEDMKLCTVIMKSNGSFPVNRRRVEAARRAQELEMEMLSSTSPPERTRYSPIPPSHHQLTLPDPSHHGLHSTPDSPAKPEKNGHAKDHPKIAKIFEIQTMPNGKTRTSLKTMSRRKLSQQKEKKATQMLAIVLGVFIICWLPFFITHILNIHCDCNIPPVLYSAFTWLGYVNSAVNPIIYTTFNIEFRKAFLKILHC
Structure (SMILES),Ki [1],"D2/D3, Ki (D2L)/Ki (D3) [2]",Human mCl [3]
"CC(C)(C)c1nc(C2CCC2)cc(N2CCN(CC[C@H]3CC[C@H](NC(=O)[C@H]4CC[C@@H](O)CC4)CC3)CC2)n1.O=C(O)C(F)(F)F [Compound 14, Cis-N-[trans-4-[2-[4-(2-tert-butyl-6-cyclobutyl-pyrimidin-4-yl)piperazin-1-yl]ethyl]cyclohexyl]-4-hydroxy-cyclohexanecarboxamide; 2,2,2-trifluoroacetic acid]",< 10 nM,++ (++>20),∘ (∘: >120 μl min^−1 mg^−1)
"CC(C)(C)c1nc(N2CCN(CC[C@H]3CC[C@@H](NC(=O)[C@H]4CC[C@H](O)CC4)CC3)CC2)cc(C2(C)CC2)n1 [Compound 28, Trans-N-[cis-4-[2-[4-[2-tert-butyl-6-(1-methylcyclopropyl)pyrimidin-4-yl]piperazin-1-yl]ethyl]cyclohexyl]-4-hydroxy-cyclohexanecarboxamide]",< 10 nM,++ (++>20),+ (+: 20-120 μl min^−1 mg^−1)
"CC(C)(C)c1nc(C2CCCC2)cc(N2CCN(CC[C@H]3CC[C@@H](NC(=O)[C@H]4CC[C@H](O)CC4)CC3)CC2)n1 [Compound 36, trans-N-[cis-4-[2-[4-(2-tert-butyl-6-cyclopentyl-pyrimidin-4-yl)piperazin-1-yl]ethyl]cyclohexyl]-4-hydroxy-cyclohexanecarboxamide]",< 10 nM,+++ (+++>50),+ (+: 20-120 μl min^−1 mg^−1)
"CC(C)(C)c1nc(N2CCN(CC[C@H]3CC[C@H](NC(=O)[C@H]4CC[C@H](O)CC4)CC3)CC2)cc(C(F)(F)F)n1 [Compound 21, trans-N-[trans-4-[2-[4-[2-tert-butyl-6-(trifluoromethyl)pyrimidin-4-yl]piperazin-1-yl]ethyl]cyclohexyl]-4-hydroxy-cyclohexanecarboxamide]",< 10 nM,++ (++>20),+ (+: 20-120 μl min^−1 mg^−1)
"COCCc1cc(N2CCN(CCC3CCC(NC(=O)C4CCC(O)CC4)CC3)C[C@H]2C)nc(C(C)(C)C)n1 (stereo partly drawn) [Compound 33, N-[4-[2-[(3R)-4-[2-tert-butyl-6-(2-methoxyethyl)pyrimidin-4-yl]-3-methyl-piperazin-1-yl]ethyl]cyclohexyl]-4-hydroxy-cyclohexanecarboxamide]",< 50 nM,+++ (+++>50),+ (+: 20-120 μl min^−1 mg^−1)
"CC(C)(C)c1cc(N2CCN(CC[C@H]3CC[C@H](NC(=O)[C@H]4CC[C@H](O)CC4)CC3)CC2)nc(C(C)(C)C)n1 [Compound 20, trans-N-[trans-4-[2-[4-(2,6-ditert-butylpyrimidin-4-yl)piperazin-1-yl]ethyl]cyclohexyl]-4-hydroxy-cyclohexanecarboxamide]",< 10 nM,++ (++>20),+ (+: 20-120 μl min^−1 mg^−1)
"CC(C)(C)c1nc(N2CCN(CC[C@H]3CC[C@@H](NC(=O)[C@H]4CC[C@H](O)CC4)CC3)CC2)cc(C(F)(F)F)n1 [Compound 23, Trans-N-[cis-4-[2-[4-[2-tert-butyl-6-(trifluoromethyl)pyrimidin-4-yl]piperazin-1-yl]ethyl]cyclohexyl]-4-hydroxy-cyclohexanecarboxamide]",< 50 nM,+++ (+++>50),+ (+: 20-120 μl min^−1 mg^−1)
"CC(C)c1cc(N2CCN(CC[C@H]3CC[C@H](NC(=O)[C@H]4CC[C@H](O)CC4)CC3)CC2)nc(C(C)(C)C)n1 [Compound 32, Trans-N-[trans-4-[2-[4-(2-tert-butyl-6-isopropyl-pyrimidin-4-yl)piperazin-1-yl]ethyl]cyclohexyl]-4-hydroxy-cyclohexanecarboxamide]",< 10 nM,++ (++>20),+ (+: 20-120 μl min^−1 mg^−1)
"CC(C)(C)c1nc(C2CCC2)cc(N2CCN(CC[C@H]3CC[C@H](NC(=O)[C@H]4C[C@H](O)C4)CC3)CC2)n1.O=C(O)C(F)(F)F [Compound 38, trans-N-[trans-4-[2-[4-(2-tert-butyl-6-cyclobutyl-pyrimidin-4-yl)piperazin-1-yl]ethyl]cyclohexyl]-3-hydroxy-cyclobutanecarboxamide; 2,2,2-trifluoroacetic acid]",< 10 nM,++ (++>20),++ (++: <20 μl min^−1 mg^−1)
"COCCc1cc(N2CCN(CC[C@H]3C[C@@H](NC(=O)[C@H]4CC[C@@H](O)CC4)C3)CC2)nc(C(C)(C)C)n1 [Compound 12, Cis-N-[cis-3-[2-[4-[2-tert-butyl-6-(2-methoxyethyl)pyrimidin-4-yl]piperazin-1-yl]ethyl]cyclobutyl]-4-hydroxy-cyclohexanecarboxamide]",< 50 nM,+++ (+++>50),+ (+: 20-120 μl min^−1 mg^−1)
"CC(C)(C)c1nc(C2CCC2)cc(N2CCN(CC[C@H]3C[C@H](NC(=O)[C@H]4CC[C@H](O)CC4)C3)CC2)n1 [Compound 9, Trans-N-[trans-3-[2-[4-(2-tert-butyl-6-cyclobutyl-pyrimidin-4-yl)piperazin-1-yl]ethyl]cyclobutyl]-4-hydroxy-cyclohexanecarboxamide]",< 10 nM,+++ (+++>50),+ (+: 20-120 μl min^−1 mg^−1)
"COCCc1cc(N2CCN(CC[C@H]3CC[C@H](NC(=O)C4CC(O)(C(F)(F)F)C4)CC3)CC2)nc(C(C)(C)C)n1 (relative stereo) [Compound 25, N-[trans-4-[2-[4-[2-tert-butyl-6-(2-methoxyethyl)pyrimidin-4-yl]piperazin-1-yl]ethyl]cyclohexyl]-3-hydroxy-3-(trifluoromethyl)cyclobutanecarboxamide]",< 10 nM,++ (++>20),∘ (∘: >120 μl min^−1 mg^−1)
"COCCc1cc(N2CCN(CC[C@H]3CC[C@@H](NC(=O)[C@H]4CC[C@@H](O)CC4)CC3)CC2)nc(C(C)(C)C)n1 [Compound 5, Cis-N-[cis-4-[2-[4-[2-tert-butyl-6-(2-methoxyethyl)pyrimidin-4-yl]piperazin-1-yl]ethyl]cyclohexyl]-4-hydroxy-cyclohexanecarboxamide]",< 50 nM,++ (++>20),∘ (∘: >120 μl min^−1 mg^−1)
"COCCc1cc(N2CCN(CC[C@H]3C[C@H](NC(=O)C4CCC(O)CC4)C3)CC2)nc(C(C)(C)C)n1 (relative stereo) [Compound 11, N-[trans-3-[2-[4-[2-tert-butyl-6-(2-methoxyethyl)pyrimidin-4-yl]piperazin-1-yl]ethyl]cyclobutyl]-4-hydroxy-cyclohexanecarboxamide]",< 10 nM,++ (++>20),+ (+: 20-120 μl min^−1 mg^−1)
"COCCc1cc(N2CCN(CC[C@H]3CC[C@H](NC(=O)[C@H]4CC[C@H](O)CC4)CC3)CC2)nc(C(C)(C)C)n1 [Compound 2, trans-N-[trans-4-[2-[4-[2-tert-butyl-6-(2-methoxyethyl)pyrimidin-4-yl]piperazin-1-yl]ethyl]cyclohexyl]-4-hydroxy-cyclohexanecarboxamide]",< 10 nM,++ (++>20),+ (+: 20-120 μl min^−1 mg^−1)
"COCc1cc(N2CCN(CC[C@H]3CC[C@H](NC(=O)[C@H]4CC[C@H](O)CC4)CC3)CC2)nc(C(C)(C)C)n1 [Compound 37, trans-N-[trans-4-[2-[4-[2-tert-butyl-6-(methoxymethyl)pyrimidin-4-yl]piperazin-1-yl]ethyl]cyclohexyl]-4-hydroxy-cyclohexanecarboxamide]",< 10 nM,+++ (+++>50),+ (+: 20-120 μl min^−1 mg^−1)
"CC(C)(C)c1nc(N2CCN(CCC3CCC(NC(=O)C4CCC(O)CC4)CC3)CC2)cc(C2(C)CC2)n1 (stereo not drawn) [Compound 27, N-[4-[2-[4-[2-tert-butyl-6-(1-methylcyclopropyl)pyrimidin-4-yl]piperazin-1-yl]ethyl]cyclohexyl]-4-hydroxy-cyclohexanecarboxamide]",< 10 nM,++ (++>20),+ (+: 20-120 μl min^−1 mg^−1)
